ChEMBL document CHEMBL1909558, “Discovery, synthesis and SAR analysis of novel selective small molecule S1P4-R agonists based on a (2Z,5Z)-5-((pyrrol-3-yl)methylene)-3-alkyl-2-(alkylimino)thiazolidin-4-one chemotype” (Bioorg Med Chem Lett, 2011)
The source made the active and inactive calls. The calls are words filed in the database; no cut-off is given here.

test system: UOS2; assay: Selectivity ratio of EC50 for S1P1 receptor to EC50 for S1P4 receptor in human […] cells; type: cell-based

Structure (SMILES) | Ratio EC50
C/N=C1\S/C(=C\c2cc(C)n(-c3ccc(F)cc3F)c2C)C(=O)N1C | 21

target: T1, Sphingosine 1-phosphate receptor 4 (Homo sapiens) (UniProt O95977); assay: Agonist activity at S1P4 receptor relative to control; type: functional
T1 sequence (whole entry): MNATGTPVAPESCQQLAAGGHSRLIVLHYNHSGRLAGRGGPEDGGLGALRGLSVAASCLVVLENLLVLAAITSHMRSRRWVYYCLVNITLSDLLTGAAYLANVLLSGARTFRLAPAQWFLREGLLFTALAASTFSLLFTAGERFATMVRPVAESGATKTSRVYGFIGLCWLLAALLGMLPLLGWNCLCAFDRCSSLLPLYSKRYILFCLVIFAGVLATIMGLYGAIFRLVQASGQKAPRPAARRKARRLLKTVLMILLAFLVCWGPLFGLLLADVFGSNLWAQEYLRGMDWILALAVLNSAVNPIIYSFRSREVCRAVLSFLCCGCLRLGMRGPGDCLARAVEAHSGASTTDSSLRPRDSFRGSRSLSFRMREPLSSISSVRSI

Structure (SMILES) | Efficacy [%]
C/N=C1\S/C(=C\c2cc(C)n(-c3ccc(F)c(C#N)c3)c2C)C(=O)N1C | 50
C/N=C1\S/C(=C\c2cc(C)n(-c3ncccc3F)c2C)C(=O)N1C | 70

Second part, the compound after the results:

Efficacy [%] | Structure (SMILES)
20 | C/N=C1\S/C(=C\c2cc(C)n(CCc3ccccc3)c2C)C(=O)N1C
70 | CC/N=C1\S/C(=C\c2cc(C)n(-c3ncccc3F)c2C)C(=O)N1CC
60 | C/N=C1\S/C(=C\c2cc(C)n(-c3cccc(F)c3)c2C)C(=O)N1C
70 | Cc1cc(/C=C2\S/C(=N\c3ccccn3)NC2=O)c(C)n1-c1ccccc1F

target: T2, Sphingosine 1-phosphate receptor 5 (Homo sapiens, UniProt Q9H228); assay: Agonist activity at S1P5 receptor; type: functional
T2 sequence (Q9H228 whole entry): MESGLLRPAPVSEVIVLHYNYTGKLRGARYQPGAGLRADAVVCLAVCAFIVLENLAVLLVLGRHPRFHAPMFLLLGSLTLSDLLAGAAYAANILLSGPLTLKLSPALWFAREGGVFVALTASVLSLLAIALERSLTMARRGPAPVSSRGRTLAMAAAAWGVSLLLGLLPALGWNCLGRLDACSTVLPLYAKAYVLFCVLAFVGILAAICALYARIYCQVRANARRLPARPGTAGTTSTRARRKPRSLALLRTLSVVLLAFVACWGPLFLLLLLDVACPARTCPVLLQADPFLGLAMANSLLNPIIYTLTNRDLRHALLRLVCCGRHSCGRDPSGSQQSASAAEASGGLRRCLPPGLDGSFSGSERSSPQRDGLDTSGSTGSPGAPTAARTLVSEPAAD

EC50 [nM] | Structure (SMILES)
8.2 | CCCCCCCCc1ccc2nc([C@@H](N)COP(=O)(O)O)[nH]c2c1
196 | COCC/N=C1\S/C(=C\c2cc(C)n(Cc3ccccc3)c2C)C(=O)N1C
51 | C/N=C1\S/C(=C\c2cc(C)n(Cc3ccccc3F)c2C)C(=O)N1C
37 | C/N=C1\S/C(=C\c2cc(C)n(Cc3ccc(F)cc3F)c2C)C(=O)N1C
652 | C/N=C1\S/C(=C\c2cc(C)n(-c3ccc(F)cc3)c2C)C(=O)N1C
237 | CC/N=C1\S/C(=C\c2cc(C)n(-c3ccccc3)c2C)C(=O)N1CC
22 | CC/N=C1\S/C(=C\c2cc(C)n(Cc3c(F)cccc3F)c2C)C(=O)N1CC

target: T3, Sphingosine 1-phosphate receptor 4 (Homo sapiens, UniProt O95977); assay: Agonist activity at S1P4 receptor in human U2OS cells expressing VP16-GAL4 transcriptional factor and beta-arrestin/TEV protease fusion protein assessed as migration of VP16-GAL4 into nucleus by FRET based beta lactamase reporter gene assay; type: functional, cell-based
T3 sequence (O95977 whole entry): T1 sequence (whole entry)

Structure (SMILES) | EC50 [nM]
CCCCCCCCc1ccc2nc([C@@H](N)COP(=O)(O)O)[nH]c2c1 | 36
COCC/N=C1\S/C(=C\c2cc(C)n(Cc3ccccc3)c2C)C(=O)N1C | 68
C/N=C1\S/C(=C\c2cc(C)n(Cc3ccccc3F)c2C)C(=O)N1C | 72
C/N=C1\S/C(=C\c2cc(C)n(Cc3ccc(F)cc3F)c2C)C(=O)N1C | 147
C/N=C1\S/C(=C\c2cc(C)n(-c3ccc(F)cc3)c2C)C(=O)N1C | 433
C/N=C1\S/C(=C\c2cc(C)n(-c3ccc(F)c(C#N)c3)c2C)C(=O)N1C | 3200
C/N=C1\S/C(=C\c2cc(C)n(-c3ncccc3F)c2C)C(=O)N1C | 3100
CC/N=C1\S/C(=C\c2cc(C)n(-c3ccccc3)c2C)C(=O)N1CC | 602
CC/N=C1\S/C(=C\c2cc(C)n(Cc3c(F)cccc3F)c2C)C(=O)N1CC | 314
C/N=C1\S/C(=C\c2cc(C)n(-c3ccc(F)cc3F)c2C)C(=O)N1C | 210

Further lines, results first:

EC50 [nM] | Structure (SMILES)
660 | C/N=C1\S/C(=C\c2cc(C)n(CCc3ccccc3)c2C)C(=O)N1C
5400 | CC/N=C1\S/C(=C\c2cc(C)n(-c3ncccc3F)c2C)C(=O)N1CC
1600 | C/N=C1\S/C(=C\c2cc(C)n(-c3cccc(F)c3)c2C)C(=O)N1C
2100 | Cc1cc(/C=C2\S/C(=N\c3ccccn3)NC2=O)c(C)n1-c1ccccc1F

target: T2, Sphingosine 1-phosphate receptor 5; assay: Agonist activity at S1P5 receptor at 25 uM; type: functional

Activity | Structure (SMILES)
inactive | C/N=C1\S/C(=C\c2cc(C)n(-c3ccc(F)cc3F)c2C)C(=O)N1C

target: T2, Sphingosine 1-phosphate receptor 5; assay: Agonist activity at S1P5 receptor relative to control; type: functional

Efficacy [%] | Structure (SMILES)
80 | COCC/N=C1\S/C(=C\c2cc(C)n(Cc3ccccc3)c2C)C(=O)N1C
50 | C/N=C1\S/C(=C\c2cc(C)n(-c3ccc(F)cc3)c2C)C(=O)N1C

target: Sphingosine 1-phosphate receptor 2 (Homo sapiens, UniProt O95136); assay: Agonist activity at S1P2 receptor at 25 uM; type: functional
Sequence (O95136 whole entry): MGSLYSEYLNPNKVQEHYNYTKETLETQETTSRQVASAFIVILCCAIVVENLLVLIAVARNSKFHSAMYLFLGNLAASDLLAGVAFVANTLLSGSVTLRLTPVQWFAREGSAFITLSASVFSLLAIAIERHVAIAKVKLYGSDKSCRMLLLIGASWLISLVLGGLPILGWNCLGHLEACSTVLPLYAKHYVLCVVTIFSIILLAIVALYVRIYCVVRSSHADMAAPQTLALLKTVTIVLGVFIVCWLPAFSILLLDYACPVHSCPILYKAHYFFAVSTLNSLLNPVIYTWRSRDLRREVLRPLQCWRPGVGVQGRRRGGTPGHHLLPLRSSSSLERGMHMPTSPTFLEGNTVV

Activity | Efficacy [%] | Structure (SMILES)
inactive | – | COCC/N=C1\S/C(=C\c2cc(C)n(Cc3ccccc3)c2C)C(=O)N1C
– | 60 | C/N=C1\S/C(=C\c2cc(C)n(Cc3ccccc3F)c2C)C(=O)N1C
inactive | – | C/N=C1\S/C(=C\c2cc(C)n(Cc3ccc(F)cc3F)c2C)C(=O)N1C
inactive | – | C/N=C1\S/C(=C\c2cc(C)n(-c3ccc(F)cc3)c2C)C(=O)N1C
inactive | – | CC/N=C1\S/C(=C\c2cc(C)n(-c3ccccc3)c2C)C(=O)N1CC
inactive | – | CC/N=C1\S/C(=C\c2cc(C)n(Cc3c(F)cccc3F)c2C)C(=O)N1CC
inactive | – | C/N=C1\S/C(=C\c2cc(C)n(-c3ccc(F)cc3F)c2C)C(=O)N1C

target: Sphingosine 1-phosphate receptor 3 (Homo sapiens) (UniProt Q99500); assay: Agonist activity at S1P3 receptor at 25 uM; type: functional
Sequence (Q99500 whole entry): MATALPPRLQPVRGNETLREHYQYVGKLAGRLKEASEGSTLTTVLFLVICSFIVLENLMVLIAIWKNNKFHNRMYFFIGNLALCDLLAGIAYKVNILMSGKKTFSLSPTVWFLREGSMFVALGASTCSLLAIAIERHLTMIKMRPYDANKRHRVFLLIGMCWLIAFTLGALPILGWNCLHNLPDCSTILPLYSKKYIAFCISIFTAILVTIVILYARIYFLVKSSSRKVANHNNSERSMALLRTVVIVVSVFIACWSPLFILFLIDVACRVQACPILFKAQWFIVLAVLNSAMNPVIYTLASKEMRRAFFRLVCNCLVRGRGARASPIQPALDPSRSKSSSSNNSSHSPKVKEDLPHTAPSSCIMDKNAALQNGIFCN

Activity | Efficacy [%] | Structure (SMILES)
inactive | – | COCC/N=C1\S/C(=C\c2cc(C)n(Cc3ccccc3)c2C)C(=O)N1C
– | 25 | C/N=C1\S/C(=C\c2cc(C)n(Cc3ccccc3F)c2C)C(=O)N1C
inactive | – | C/N=C1\S/C(=C\c2cc(C)n(Cc3ccc(F)cc3F)c2C)C(=O)N1C
inactive | – | C/N=C1\S/C(=C\c2cc(C)n(-c3ccc(F)cc3)c2C)C(=O)N1C
inactive | – | CC/N=C1\S/C(=C\c2cc(C)n(-c3ccccc3)c2C)C(=O)N1CC
inactive | – | CC/N=C1\S/C(=C\c2cc(C)n(Cc3c(F)cccc3F)c2C)C(=O)N1CC
inactive | – | C/N=C1\S/C(=C\c2cc(C)n(-c3ccc(F)cc3F)c2C)C(=O)N1C

target: T4, Sphingosine 1-phosphate receptor 1 (Homo sapiens, UniProt P21453); assay: Agonist activity at S1P1 receptor relative to control; type: functional
T4 sequence (P21453 whole entry): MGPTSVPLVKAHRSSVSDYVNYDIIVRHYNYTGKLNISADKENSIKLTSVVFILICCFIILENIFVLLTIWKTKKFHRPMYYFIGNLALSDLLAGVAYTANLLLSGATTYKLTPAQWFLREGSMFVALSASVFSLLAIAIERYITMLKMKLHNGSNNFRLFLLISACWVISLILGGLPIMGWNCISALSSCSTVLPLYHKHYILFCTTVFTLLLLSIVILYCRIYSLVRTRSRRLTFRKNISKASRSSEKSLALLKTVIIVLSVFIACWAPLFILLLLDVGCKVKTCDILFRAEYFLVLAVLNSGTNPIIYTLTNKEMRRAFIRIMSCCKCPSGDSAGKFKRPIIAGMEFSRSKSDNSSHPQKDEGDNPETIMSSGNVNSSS

Efficacy [%] | Structure (SMILES)
70 | C/N=C1\S/C(=C\c2cc(C)n(-c3ccc(F)cc3)c2C)C(=O)N1C

target: T4, Sphingosine 1-phosphate receptor 1; assay: Antagonist activity at S1P1 receptor at 25 uM; type: functional

inhibition [%] | Structure (SMILES)
85 | COCC/N=C1\S/C(=C\c2cc(C)n(Cc3ccccc3)c2C)C(=O)N1C

target: T4, Sphingosine 1-phosphate receptor 1; assay: Agonist activity at S1P1 receptor; type: functional

EC50 [nM] | Structure (SMILES)
21 | CCCCCCCCc1ccc2nc([C@@H](N)COP(=O)(O)O)[nH]c2c1
250 | C/N=C1\S/C(=C\c2cc(C)n(Cc3ccccc3F)c2C)C(=O)N1C
287 | C/N=C1\S/C(=C\c2cc(C)n(Cc3ccc(F)cc3F)c2C)C(=O)N1C
1800 | C/N=C1\S/C(=C\c2cc(C)n(-c3ccc(F)cc3)c2C)C(=O)N1C
68 | CC/N=C1\S/C(=C\c2cc(C)n(-c3ccccc3)c2C)C(=O)N1CC
18 | CC/N=C1\S/C(=C\c2cc(C)n(Cc3c(F)cccc3F)c2C)C(=O)N1CC
4470 | C/N=C1\S/C(=C\c2cc(C)n(-c3ccc(F)cc3F)c2C)C(=O)N1C
